Results reported in patent US11286239B2, “Angiotensin II receptor 2 antagonist salt form and crystalline form, and preparation method therefor” (SHANDONG DANHONG PHARMACEUTICAL CO., LTD., priority 2018, dated 2022).

Key:
Solid stability test = format: physicochemical
Protocol: […] The samples placed at the conditions of high temperature (60° C.) and high humidity (92.5% humidity, room temperature) were taken to test XRPD and purity on the 5th day and 10 days. Samples placed at high temperature and high humidity (40° C./75% humidity, 60° C./75% humidity) were taken to test XRPD and purity on the 10th day, 1 month, 2 months, and 3 months. The samples placed under light irradiation conditions were taken for testing when a total illuminance reached 1.2×10^6 Lux·hr. The test results are compared with the beginning test results of 0 day.

[1] = Hygroscopicity study by dynamic vapor sorption (DVS); format: physicochemical; conditions: 25° C. and 80% RH
Protocol: Test conditions: a sample (10-15 mg) is placed in DVS sample tray for testing.
Balance: dm/dt=0.01%/min (shortest: 10 min, longest: 180 min)
Drying: drying for 120 min at 0% RH
RH (%) test gradient: 10%
RH (%) test gradient range: 0%-90%-0%
The hygroscopicity property is evaluated and classified as follows: […]

[2] = 40° C., relative humidity 75%, open, 1M
[3] = 40° C., relative humidity 75%, open, 2M
[4] = 40° C., relative humidity 75%, open, 3M
[5] = 40° C., relative humidity 75%, open, 10 days
[6] = 60° C., relative humidity 75%, open, 1M
[7] = 60° C., relative humidity 75%, open, 2M
[8] = 60° C., relative humidity 75%, open, 3M
[9] = 60° C., relative humidity 75%, open, 10 days
[10] = High humidity (room temperature/relative humidity 92.5%, open), 5 days
[11] = High humidity (room temperature/relative humidity 92.5%, open), 10 days
[12] = High temperature (60° C., open), 5 days
[13] = High temperature (60° C., open), 10 days
[14] = Light irradiation (total illuminance of 1.2 × 10^6 Lux·hr/near ultraviolet 200 w·hr/m^2, open)

## COc1ccc2c(c1OCc1ccccc1)C[C@@H](C(=O)O)N(C(=O)[C@@H](OC1CCCC1)c1ccccc1)C2 [crystalline form “B”]
Solid stability test; 0 day
  Crystalline form (XRPD): Crystalline form “B”
  Purity: 99.89%
Solid stability test; [2]
  Crystalline form (XRPD): Crystalline form “B”
  Purity: 99.92%
Solid stability test; [3]
  Crystalline form (XRPD): Crystalline form “B”
  Purity: 99.87%
Solid stability test; [4]
  Crystalline form (XRPD): Crystalline form “B”
  Purity: 99.87%
Solid stability test; [5]
  Crystalline form (XRPD): Crystalline form “B”
  Purity: 99.93%
Solid stability test; [6]
  Crystalline form (XRPD): Crystalline form “B”
  Purity: 99.90%
Solid stability test; [7]
  Crystalline form (XRPD): Crystalline form “B”
  Purity: 99.78%
Solid stability test; [8]
  Crystalline form (XRPD): Crystalline form “B”
  Purity: 99.80%
Solid stability test; [9]
  Crystalline form (XRPD): Crystalline form “B”
  Purity: 99.92%
Solid stability test; [10]
  Crystalline form (XRPD): Crystalline form “B”
  Purity: 99.93%
Solid stability test; [11]
  Crystalline form (XRPD): Crystalline form “B”
  Purity: 99.92%
Solid stability test; [12]
  Crystalline form (XRPD): Crystalline form “B”
  Purity: 99.93%
Solid stability test; [13]
  Crystalline form (XRPD): Crystalline form “B”
  Purity: 99.93%
Solid stability test; [14]
  Crystalline form (XRPD): Crystalline form “B”
  Purity: 99.96%
Solid stability test; high temperature, high humidity, strong light and accelerated conditions
  Solid stability conclusion: good crystal stability and good chemical stability
[1]
  Classification of hygroscopicity: almost no hygroscopicity
  ΔW, weight gain caused by hygroscopicity: 0.05327%
